How the values were obtained:
Type in all cases: in vivo
[1] = system: Scirpus juncoides; assay: Herbicidal efficacy on paddy field weeds of pre-emergence stage (Pre), Test Example 1; conditions: 1000 g/ha as active ingredient, examined after 21 days
In short: (§1)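 Pre-emergence paddy test: 1000 g/ha active ingredient, formulated and water-diluted, dropped onto 5 cm floodwater one day after sowing both weeds in clay loam. After 21 days in greenhouse, inhibition relative to untreated control rated on 0 (0%) to 5 (100%) scale.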

[2] = system: Lindernia procumbens; assay: as above; conditions: 1000 g/ha as active ingredient, examined after 21 days
In short: as §1

[3] = system: Scirpus juncoides; assay: Herbicidal effect on paddy field weeds of post-emergence stage (Post), Test Example 2; conditions: one-leaf stage, 1000 g/ha as active ingredient, examined after 21 days
In short: (§2)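 Post-emergence paddy test: formulated compound added to 5 cm standing water at 1000 g/ha a.i. when weeds reached one-leaf stage in clay loam pots in greenhouse. Growth inhibition rated 21 days later versus untreated control on a 0 (0%) to 5 (100%) scale.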

[4] = system: Lindernia procumbens; assay: as above; conditions: one-leaf stage, 1000 g/ha as active ingredient, examined after 21 days
In short: as §2

[5] = system: Echinochloa crus-galli; assay: as above; conditions: one-leaf stage, 1000 g/ha as active ingredient, examined after 21 days
In short: as §2

Compound | Scirpus juncoides pre (herbicidal effect) [1] | Lindernia procumbens pre (herbicidal effect) [2] | Scirpus juncoides post (herbicidal effect) [3] | Lindernia procumbens post (herbicidal effect) [4] | Echinochloa crus-galli post (herbicidal effect) [5]
CC(C)COC(=O)N(c1ccccc1CN1CCC(C)(C)OC1=O)S(=O)(=O)C(F)(F)F [Compound 1-50] | 4 (90%-99% herbicidal effect, phytotoxicity) | 4 (90%-99% herbicidal effect, phytotoxicity) | 4 (90%-99% herbicidal effect, phytotoxicity) | 4 (90%-99% herbicidal effect, phytotoxicity) | 4 (90%-99% herbicidal effect, phytotoxicity)
CC(C)(C)COC(=O)N(c1ccccc1CN1CCC(C)(C(F)(F)F)OC1=O)S(=O)(=O)C(F)(F)F (centres unmarked) [Compound 1-86] | 4 (90%-99% herbicidal effect, phytotoxicity) | 4 (90%-99% herbicidal effect, phytotoxicity) | 4 (90%-99% herbicidal effect, phytotoxicity) | 4 (90%-99% herbicidal effect, phytotoxicity) | 4 (90%-99% herbicidal effect, phytotoxicity)
CCCC1(CC)CCN(Cc2ccccc2N(C(=O)OCC(C)C)S(=O)(=O)C(F)(F)F)C(=O)O1 (racemic) [Compound 1-499] | 5 (100% herbicidal effect, phytotoxicity) | 5 (100% herbicidal effect, phytotoxicity) | 4 (90%-99% herbicidal effect, phytotoxicity) | 5 (100% herbicidal effect, phytotoxicity) | 4 (90%-99% herbicidal effect, phytotoxicity)
CC(C)COC(=O)N(c1ccccc1CN1CCCCOC1=O)S(=O)(=O)C(F)(F)F [2-6] | 4 (90%-99% herbicidal effect, phytotoxicity) | 4 (90%-99% herbicidal effect, phytotoxicity) | 4 (90%-99% herbicidal effect, phytotoxicity) | 4 (90%-99% herbicidal effect, phytotoxicity) | 4 (90%-99% herbicidal effect, phytotoxicity)
CCCCC(CC)COC(=O)N(c1ccccc1CN1CCC(CC)(CC)OC1=O)S(=O)(=O)C(F)(F)F (centres unmarked) [Compound 1-109] | 4 (90%-99% herbicidal effect, phytotoxicity) | 4 (90%-99% herbicidal effect, phytotoxicity) | 4 (90%-99% herbicidal effect, phytotoxicity) | 4 (90%-99% herbicidal effect, phytotoxicity) | 4 (90%-99% herbicidal effect, phytotoxicity)
CC(C)COC(=O)N(c1ccccc1CN1CCC(c2ccccc2)(C2CCC2)OC1=O)S(=O)(=O)C(F)(F)F (centres unmarked) [Compound 1-211] | 4 (90%-99% herbicidal effect, phytotoxicity) | 4 (90%-99% herbicidal effect, phytotoxicity) | 4 (90%-99% herbicidal effect, phytotoxicity) | 4 (90%-99% herbicidal effect, phytotoxicity) | 4 (90%-99% herbicidal effect, phytotoxicity)
CCOC(=O)N(c1ccccc1CN1CCCCOC1=O)S(=O)(=O)C(F)(F)F [2-3] | 4 (90%-99% herbicidal effect, phytotoxicity) | 4 (90%-99% herbicidal effect, phytotoxicity) | 4 (90%-99% herbicidal effect, phytotoxicity) | 4 (90%-99% herbicidal effect, phytotoxicity) | 4 (90%-99% herbicidal effect, phytotoxicity)
CC(C)(C)COC(=O)N(c1ccccc1CN1CCC(C)(C2CC2)OC1=O)S(=O)(=O)C(F)(F)F (centres unmarked) [Compound 1-131] | 4 (90%-99% herbicidal effect, phytotoxicity) | 4 (90%-99% herbicidal effect, phytotoxicity) | 4 (90%-99% herbicidal effect, phytotoxicity) | 4 (90%-99% herbicidal effect, phytotoxicity) | 4 (90%-99% herbicidal effect, phytotoxicity)
CC1(C)CCN(Cc2ccccc2NS(=O)(=O)C(F)(F)F)C(=O)O1 [Compound 1-45] | 4 (90%-99% herbicidal effect, phytotoxicity) | 4 (90%-99% herbicidal effect, phytotoxicity) | 4 (90%-99% herbicidal effect, phytotoxicity) | 4 (90%-99% herbicidal effect, phytotoxicity) | 4 (90%-99% herbicidal effect, phytotoxicity)
CCCCOC(=O)N(c1ccccc1CN1CCC(C)COC1=O)S(=O)(=O)C(F)(F)F (racemic) [2-27] | 4 (90%-99% herbicidal effect, phytotoxicity) | 4 (90%-99% herbicidal effect, phytotoxicity) | 4 (90%-99% herbicidal effect, phytotoxicity) | 4 (90%-99% herbicidal effect, phytotoxicity) | 4 (90%-99% herbicidal effect, phytotoxicity)
CCCOC(=O)N(c1ccccc1CN1CC(C)(C)COC1=O)S(=O)(=O)C(F)(F)F [Compound 1-26] | 4 (90%-99% herbicidal effect, phytotoxicity) | 4 (90%-99% herbicidal effect, phytotoxicity) | 4 (90%-99% herbicidal effect, phytotoxicity) | 4 (90%-99% herbicidal effect, phytotoxicity) | 4 (90%-99% herbicidal effect, phytotoxicity)
CC(C)COC(=O)N(c1ccccc1CN1CCCOC1=O)S(=O)(=O)C(F)(F)F [Compound 1-6] | 4 (90%-99% herbicidal effect, phytotoxicity) | 4 (90%-99% herbicidal effect, phytotoxicity) | 4 (90%-99% herbicidal effect, phytotoxicity) | 4 (90%-99% herbicidal effect, phytotoxicity) | 4 (90%-99% herbicidal effect, phytotoxicity)
COC(=O)N(c1ccccc1CN1CCC(c2c(C)cccc2C)OC1=O)S(=O)(=O)C(F)(F)F (centres unmarked) [Compound 1-361] | 5 (100% herbicidal effect, phytotoxicity) | 5 (100% herbicidal effect, phytotoxicity) | 4 (90%-99% herbicidal effect, phytotoxicity) | 5 (100% herbicidal effect, phytotoxicity) | 4 (90%-99% herbicidal effect, phytotoxicity)
CCC1(CC(C)C)CCN(Cc2ccccc2NS(=O)(=O)C(F)(F)F)C(=O)O1 (centres unmarked) [Compound 1-417] | 5 (100% herbicidal effect, phytotoxicity) | 5 (100% herbicidal effect, phytotoxicity) | 4 (90%-99% herbicidal effect, phytotoxicity) | 5 (100% herbicidal effect, phytotoxicity) | 4 (90%-99% herbicidal effect, phytotoxicity)
CCOC(=O)N(c1ccccc1CN1CCCCOC1=S)S(=O)(=O)C(F)(F)F [2-14] | 4 (90%-99% herbicidal effect, phytotoxicity) | 4 (90%-99% herbicidal effect, phytotoxicity) | 4 (90%-99% herbicidal effect, phytotoxicity) | 4 (90%-99% herbicidal effect, phytotoxicity) | 4 (90%-99% herbicidal effect, phytotoxicity)
CC(C)(C)COC(=O)N(c1ccccc1CN1CCC2(CCCC2)OC1=O)S(=O)(=O)C(F)(F)F [Compound 1-143] | 4 (90%-99% herbicidal effect, phytotoxicity) | 4 (90%-99% herbicidal effect, phytotoxicity) | 4 (90%-99% herbicidal effect, phytotoxicity) | 4 (90%-99% herbicidal effect, phytotoxicity) | 4 (90%-99% herbicidal effect, phytotoxicity)
CCOC(=O)N(c1ccccc1CN1CC(C)(C)COC1=O)S(=O)(=O)C(F)(F)F [Compound 1-25] | 4 (90%-99% herbicidal effect, phytotoxicity) | 4 (90%-99% herbicidal effect, phytotoxicity) | 4 (90%-99% herbicidal effect, phytotoxicity) | 4 (90%-99% herbicidal effect, phytotoxicity) | 4 (90%-99% herbicidal effect, phytotoxicity)
O=C1OCCCCN1Cc1ccccc1NS(=O)(=O)C(F)(F)F [2-1] | 4 (90%-99% herbicidal effect, phytotoxicity) | 4 (90%-99% herbicidal effect, phytotoxicity) | 4 (90%-99% herbicidal effect, phytotoxicity) | 4 (90%-99% herbicidal effect, phytotoxicity) | 4 (90%-99% herbicidal effect, phytotoxicity)
COC(=O)N(c1ccccc1CN1CCC(C(F)(F)F)(C(F)(F)F)OC1=O)S(=O)(=O)C(F)(F)F [Compound 1-339] | 4 (90%-99% herbicidal effect, phytotoxicity) | 5 (100% herbicidal effect, phytotoxicity) | 4 (90%-99% herbicidal effect, phytotoxicity) | 5 (100% herbicidal effect, phytotoxicity) | 4 (90%-99% herbicidal effect, phytotoxicity)
